This note sets out measurements from US6537994B2, “Heterocyclic β3 adrenergic receptor agonists” (Wyeth, priority 2000, dated 2003).

For data set [1], the target named is T1, human β3-AR (Homo sapiens, UniProt P13945).
T1 construct: Full length β3 AR clones (402 amino acids) containing the last 6 amino acids of hβ3-AR; expressed in transfected cells; host or cells: CHO cells
In words: cAMP accumulation (SPA) in CHO cells transfected with human β3 adrenergic receptor. The format is cell-based. To be noted: for pEC50: CHO cells expressing human β3-AR, cAMP, 30 min incubation, 10^−9 M to 10^−5 M; for IA(β3): maximal response, IA=% activity compound/% activity isoproterenol at 10^−5 M. The protocol:
The ability of compounds of this invention to treat or inhibit disorders related to insulin resistance or hyperglycemia was confirmed with representative compounds of this invention in the following standard pharmacological test procedures, which measured the binding selectivity to the β1, β2, and β3 adrenergic receptors. Binding to the receptors was measured in Chinese Hamster ovary (CHO) cells that were transfected with adrenergic receptors. The following briefly summarizes the procedures used and results obtained.
Cloning of Human β3-AR Genomic DNA: cDNA was constructed by ligating four polymerase chain reaction (PCR) products using the following primers: an ATG-Narl fragment, sense primer 5′-[…]3′ and anti-sense primer 5′[…]3′; a Narl-Accl fragment, 5′[…]3′ as sense and 5′[…]3′ as anti-sense primer; an Accli-Styl fragment, sense primer 5′[…]3′ and anti-sense primer 5′[…]3′ and a Styl-TAG fragment, with sense primer 5′[…]3′ and anti-sense primer 5′[…]3′. The corresponding primer sequences are described in Mantzoros, C. S., et. al., Diabetes 45: 909-914 (1996). The four fragments are ligated into a pUC 18 plasmid (Gibco-BRL) and sequenced. Full length β3 AR clones (402 amino acids) containing the last 6 amino acids of hβ3-AR are prepared with the β3-βARpcDNA3 from ATTC.
Binding Procedure: Clones expressing receptor levels of 70 to 110 fmoles/mg protein were used in the test procedures. CHO cells were grown in 24-well tissue culture plates in Dulbecco's Modified Eagle Media with 10% fetal bovine serum, MEM non-essential amino acids, Penicillin-Streptompycin and Geneticin. On the day of test procedure, growth medium was replaced with preincubation media (Dulbecco's Modified Eagle Media and incubated for 30 minutes at 37° C. Preincubation medium was replaced with 0.2 ml treatment medium containing DMEM media containing 250 μM IBMX (isobutyl-1-methylxantine) plus 1 mM ascorbic acid with test compound dissolved in DMSO. Test compounds were tested over a concentration range of 10^−9 M to 10^−5 M for β3 cells and 10^−8 to 10^−4 M for β1 and β2 transfected cells. Isoproterenol (10^−5 M) was used as an internal standard for comparison of activity. Cells were incubated at 37° C. on a rocker for 30 min with the β3 cells and 15 min for β1 and β2 cells. Incubation was stopped with the addition of 0.2N HCl and neutralized with 2.5N NaOH. The plates, containing the cells and neutralized media, were stored at −20 degrees celsius until ready to test for cAMP using the SPA test kit (Amersham).
Data Analysis and Results: Data collected from the SPA test procedure were analyzed as per cent of the maximal isoproterenol response at 10^−5 M. Activity curves were plotted using the SAS statistical and graphics software.
IA=% activity compound/% activity isoproterenol

The term melting point denotes the temperature of the solid-liquid transition. The term pEC50 denotes the EC50 on a negative log10 scale, so that one unit is a factor of ten. Lower therefore signals a large EC50.

pEC50: −log10 of the molar value. Values joined by “and” are separate entries in the source; they are usually repeats but may differ in a detail not shown here. Equal entries are not always repeated.

T1 sequence (P13945 whole entry): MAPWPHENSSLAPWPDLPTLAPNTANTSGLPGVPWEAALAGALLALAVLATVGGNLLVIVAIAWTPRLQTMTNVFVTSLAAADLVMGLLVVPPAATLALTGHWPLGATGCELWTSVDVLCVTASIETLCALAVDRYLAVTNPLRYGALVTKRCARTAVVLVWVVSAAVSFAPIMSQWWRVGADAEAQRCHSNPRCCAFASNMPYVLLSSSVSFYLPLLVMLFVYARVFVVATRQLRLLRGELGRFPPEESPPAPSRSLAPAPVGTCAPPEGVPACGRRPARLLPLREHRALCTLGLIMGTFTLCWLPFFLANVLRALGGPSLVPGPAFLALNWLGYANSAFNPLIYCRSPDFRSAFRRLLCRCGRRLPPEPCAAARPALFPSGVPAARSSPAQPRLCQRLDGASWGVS

In the case of `O=[N+]([O-])c1cccnc1Nc1ccc(CCNC[C@H](O)COc2ccc(O)cc2)cc1` (hydrate or solvate) [Example 1, 4-((2S)-2-Hydroxy-3-{2-[4-(3-nitro-pyridin-2-ylamino)-phenyl]-ethylamino}-propoxy)-phenol], the melting point lay within 148 to 149 °C.
Same read-out and setting: with `Nc1cccnc1Nc1ccc(CCNC[C@H](O)COc2ccc(O)cc2)cc1` (hydrate or solvate) [Example 2, 4-((2R)-3-{2-[4-(3-Amino-pyridin-2-ylamino)-phenyl]-ethylamino}-2-hydroxy-propoxy)-phenol] the figure was 63 to 65 °C.
The molecule `Oc1ccc(OC[C@@H](O)CNCCc2ccc(-n3cnc4cccnc43)cc2)cc1` (hydrate or solvate) [Example 3, 4-{(2S)-2-Hydroxy-3-[2-(4-imidazo[4,5-b]pyridin-3-yl-phenyl)-ethylamino]-propoxy}-phenol] displayed a melting point of 49 to 52 °C.
Take `CCCCCCNC(=O)Nc1ccc(-c2nc3cccnc3n2-c2ccc(CCNC[C@H](O)COc3ccc(O)cc3)cc2)cc1` (hydrate or solvate) [Example 15, N-hexyl-N′-(4-{3-[4-(2-{[(2S)-2-hydroxy-3-(4-hydroxyphenoxy)propyl]amino}ethyl)phenyl]-3H-imidazo[4,5-b]pyridin-2-yl}phenyl)urea]: the melting point was 110 to 116 °C.
Same read-out and setting: with `CCCCCCNC(=O)Nc1cccc(-c2nc3cccnc3n2-c2ccc(CCNCC(O)COc3ccc(O)cc3)cc2)c1` (stereo not drawn) (hydrate or solvate) [Example 16, 1-Hexyl-3-{3-[3-(4-{2-[2-hydroxy-3-(4-hydroxy-phenoxy)-propylamino]-ethyl}-phenyl)-3H-imidazo[4,5-b]pyridin-2-yl]-phenyl}-urea] the figure was 93 to 95 °C.
Still for that read-out and setting: as for `CCCCCCNC(=O)Nc1ccc(CCc2nc3cccnc3n2-c2ccc(CCNC[C@H](O)COc3ccc(O)cc3)cc2)cc1` (hydrate or solvate) [Example 17, 1-Hexyl-3-(4-{2-[3-(4-{2-[(2S)-2-hydroxy-3-(4-hydroxy-phenoxy)-propylamino]-ethyl}-phenyl)-3H-imidazo[4,5-b]pyridin-2-yl]-ethyl}-phenyl)-urea], the figure is 90 to 92 °C.
On to `Nc1cccnc1Nc1ccc(CCNCC(O)COc2ccc(O)cc2)cc1` (stereo in doubt) [Example 2, 4-((2R)-3-{2-[4-(3-Amino-pyridin-2-ylamino)-phenyl]-ethylamino}-2-hydroxy-propoxy)-phenol], for which, in data set [1], the pEC50 was 7.14 and the “IA(β3)” value is 1.01.
For `O=[N+]([O-])c1cccnc1Nc1ccc(CCNC[C@H](O)COc2ccc(O)cc2)cc1` [Example 1, 4-((2S)-2-Hydroxy-3-{2-[4-(3-nitro-pyridin-2-ylamino)-phenyl]-ethylamino}-propoxy)-phenol] the same measures were 6.49 and 0.65.
Turning to `Oc1ccc(OC[C@@H](O)CNCCc2ccc(-n3cnc4cccnc43)cc2)cc1` [Example 3, 4-{(2S)-2-Hydroxy-3-[2-(4-imidazo[4,5-b]pyridin-3-yl-phenyl)-ethylamino]-propoxy}-phenol], in data set [1], the pEC50 was 7.02 and the “IA(β3)” value amounted to 0.76.
`CCCCCCNC(=O)Nc1cccnc1Nc1ccc(CCNC[C@H](O)COc2ccc(O)cc2)cc1` [Example 4, 1-Hexyl-3-[2-(4-{2-[(2S)-2-hydroxy-3-(4-hydroxy-phenoxy)-propylamino]-ethyl}-phenylamino)-pyridin-3-yl]-urea] displayed a melting point of 61 to 64 °C.
As for `Nc1cccnc1Oc1ccc(CCNC[C@H](O)COc2ccc(O)cc2)cc1` [Example 5, 4-((2S)-3-{2-[4-(3-Amino-pyridin-2-yloxy)-phenyl]-ethylamino}-2-hydroxy-propoxy)-phenol], in data set [1], the pEC50 was 7.70 and the “IA(β3)” value stood at 1.12.
In the case of `O=C(Nc1cccnc1Nc1ccc(CCNC[C@H](O)COc2ccc(O)cc2)cc1)c1ccccc1` [Example 6, N-[2-(4-{2-[(2S)-2-Hydroxy-3-(4-hydroxy-phenoxy)-propylamino]-ethyl}-phenylamino)-pyridin-3-yl]-benzamide], the melting point was 97 to 99 °C. Besides, in data set [1], the negative logarithm of the EC50 (pEC50) was 7.08 and the “IA(β3)” value is 0.88.
The molecule `C=C(C)n1c(=O)n(-c2ccc(CCNC[C@H](O)COc3ccc(O)cc3)cc2)c2ncccc21` [Example 7, 3-(4-{2-[(2S)-2-Hydroxy-3-(4-hydroxy-phenoxy)-propylamino]-ethyl}-phenyl)-1-isopropenyl-1,3-dihydro-imidazo[4,5-b]pyridin-2-one] gave a melting point of 62 to 64 °C. For the same molecule, in data set [1], the pEC50 is 7.24 and the “IA(β3)” value is reported as 1.12.
For `CCc1ccc(-c2nc3cccnc3n2-c2ccc(CCNC[C@H](O)COc3ccc(O)cc3)cc2)cc1` [Example 8, 4-[(2S)-3-(2-{4-[2-(4-Ethyl-phenyl)-imidazo[4,5-b]pyridin-3-yl]-phenyl}-ethylamino)-2-hydroxy-propoxy]-phenol], in that order: 75 to 78 °C, 8.22 and 1.03.
For `CCCCCc1nc2cccnc2n1-c1ccc(CCNC[C@H](O)COc2ccc(O)cc2)cc1` [Example 9, 4-((2S)-2-Hydroxy-3-{2-[4-(2-pentyl-imidazo[4,5-b]pyridin-3-yl)-phenyl]-ethylaminol}-propoxy)-phenol], in that order: 50 to 52 °C, 6.58 and 0.74.
For `Oc1ccc(OC[C@@H](O)CNCCc2ccc(-n3c(-c4ccc(C5CCCCC5)cc4)nc4cccnc43)cc2)cc1` [Example 10, 4-[(2S)-3-(2-{4-[2-(4-Cyclohexyl-phenyl)-imidazo[4,5-b]pyridin-3-yl]-phenyl}-ethylamino)-2-hydroxy-propoxy]-phenol], in that order: 100 to 102 °C, 8.22 and 0.96.
`Oc1ccc(OC[C@@H](O)CNCCc2ccc(-n3c(CCC4CCCC4)nc4cccnc43)cc2)cc1` [Example 11, 4-[(2S)-3-(2-{4-[2-(2-Cyclopentyl-ethyl)-imidazo[4,5-b]pyridin-3-yl]-phenyl}-ethylamino)-2-hydroxy-propoxy]-phenol] registered a melting point of 59 to 61 °C. Besides, in data set [1], the negative logarithm of the EC50 (pEC50) was 8.00 and the “IA(β3)” value worked out at 0.86.
The molecule `O=c1[nH]c2cccc(OCC(O)CNCCc3ccc(-n4c(CCC5CCCC5)nc5cccnc54)cc3)c2[nH]1` (stereo not drawn) [Example 12, 4-[3-(2-{4-[2-(2-Cyclopentyl-ethyl)-imidazo[4,5-b]pyridin-3-yl]-phenyl}-ethylamino) -2-hydroxy-propoxy]-1,3-dihydro-benzoimidazol-2-one] registered a melting point of 115 to 117 °C. Moreover, the negative-log EC50 (pEC50) in data set [1] is 8.30 and 7.82.
Consider `CCCCCc1nc2cccnc2n1-c1ccc(CCNC[C@H](O)COc2cccc3[nH]c(=O)[nH]c23)cc1` [Example 13, 4-((2S)-2-Hydroxy-3-{2-[4-(2-pentyl-imidazo[4,5-b]pyridin-3-yl)-phenyl]-ethylaminol}-propoxy)-1,3-dihydro-benzoimidazol-2-one], for which, in data set [1], the negative logarithm of the EC50 (pEC50) is 7.34 and the “IA(β3)” value worked out at 0.087.
As for `Cc1ccn(-c2ccc(-c3nc4cccnc4n3-c3ccc(CCNCC(O)COc4ccc(O)cc4)cc3)c(Cl)c2)n1` (stereo not drawn) [Example 14, 4-{3-[2-(4-{2-[2-Chloro-4-(3-methyl-pyrazol-1-yl)-phenyl]-imidazo[4,5-b]pyridin-3-yl}-phenyl)-ethylamino]-2-hydroxy-propoxy}-phenol], the melting point fell in the range of 87 to 89 °C. In addition, in data set [1], the pEC50 was 7.27 and the “IA(β3)” value was found to be 0.086.
In the case of `CCCCCCNC(=O)Nc1ccc(-c2nc3cccnc3n2-c2ccc(CCNC[C@H](O)COc3ccc(O)cc3)cc2)cc1` [Example 15, N-hexyl-N′-(4-{3-[4-(2-{[(2S)-2-hydroxy-3-(4-hydroxyphenoxy)propyl]amino}ethyl)phenyl]-3H-imidazo[4,5-b]pyridin-2-yl}phenyl)urea], in data set [1], the negative-log EC50 (pEC50) is 7.15 and the “IA(β3)” value is listed as 1.05.
